Laboratory results taken from ChEMBL document CHEMBL4145634, “Discovery of Janus Kinase 2 (JAK2) and Histone Deacetylase (HDAC) Dual Inhibitors as a Novel Strategy for the Combinational Treatment of Leukemia and Invasive Fungal Infections” (J Med Chem, 2018).
≈ marks a conversion by molar mass, not a printed value. Calls of active or inactive are those of the source. The calls are words filed in the database; no cut-off is given here.

Legend:
[1] = system: HEL; test: Antitumor activity in human HEL cells xenografted in SCID mouse assessed as increase in mouse survival at 10 mg/kg, ip qd measured up to 40 days; assay type: functional, organism-based
[2] = target: T1, Histone deacetylase (Homo sapiens) (UniProt Q13547+O15379+Q9UBN7+Q92769+Q9UQL6+Q8WUI4+Q9BY41+Q96DB2+P56524+Q9UKV0+Q969S8); test: Inhibition of HDAC in human HEL cells assessed as increased in histone H3 acetylation after 24 hrs by Western blot analysis; assay type: cell-based
[3] = system: Candida albicans; test: microbe, parasite or virus in culture; assay type: functional; settings: Candida albicans, 100, 48 h
Description: Antifungal activity against FLC resistant Candida albicans 100 assessed as fluconazol MIC50 after 48 hrs by checkerboard microdilution method

[4] = system: Candida albicans; test: Synergistic antifungal activity against FLC resistant Candida albicans 0304103 assessed as FIC index after 48 hrs by checkerboard microdilution method; assay type: functional
[5] = target: Histone deacetylase 3/NCoR1 (Homo sapiens, UniProt O15379); test: Inhibition of human recombinant HDAC3/GST-tagged NCOR1 (397 to 503 residues) co-expressed in insect cells using (Ac-Leu-Gly-Lys(Ac)-AMC as substrate preincubated for 5 mins followed by substrate addition and measured after 30 mins by fluorescence assay
Chain of Histone deacetylase 3/NCoR1 (O15379 whole entry, the tested form may be a part): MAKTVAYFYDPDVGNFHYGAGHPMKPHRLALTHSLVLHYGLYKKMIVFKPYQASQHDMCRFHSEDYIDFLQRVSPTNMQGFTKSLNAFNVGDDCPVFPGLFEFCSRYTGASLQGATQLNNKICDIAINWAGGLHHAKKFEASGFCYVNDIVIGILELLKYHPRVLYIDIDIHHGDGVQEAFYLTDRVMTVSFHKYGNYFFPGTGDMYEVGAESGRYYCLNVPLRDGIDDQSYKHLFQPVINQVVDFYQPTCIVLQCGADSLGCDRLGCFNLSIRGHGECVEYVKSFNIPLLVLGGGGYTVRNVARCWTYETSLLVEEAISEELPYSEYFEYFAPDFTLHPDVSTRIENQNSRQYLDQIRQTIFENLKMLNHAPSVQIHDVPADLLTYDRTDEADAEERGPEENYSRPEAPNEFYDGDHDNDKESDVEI
Chain of Histone deacetylase 3/NCoR1 (O75376 whole entry, further chain, the tested form may be a part): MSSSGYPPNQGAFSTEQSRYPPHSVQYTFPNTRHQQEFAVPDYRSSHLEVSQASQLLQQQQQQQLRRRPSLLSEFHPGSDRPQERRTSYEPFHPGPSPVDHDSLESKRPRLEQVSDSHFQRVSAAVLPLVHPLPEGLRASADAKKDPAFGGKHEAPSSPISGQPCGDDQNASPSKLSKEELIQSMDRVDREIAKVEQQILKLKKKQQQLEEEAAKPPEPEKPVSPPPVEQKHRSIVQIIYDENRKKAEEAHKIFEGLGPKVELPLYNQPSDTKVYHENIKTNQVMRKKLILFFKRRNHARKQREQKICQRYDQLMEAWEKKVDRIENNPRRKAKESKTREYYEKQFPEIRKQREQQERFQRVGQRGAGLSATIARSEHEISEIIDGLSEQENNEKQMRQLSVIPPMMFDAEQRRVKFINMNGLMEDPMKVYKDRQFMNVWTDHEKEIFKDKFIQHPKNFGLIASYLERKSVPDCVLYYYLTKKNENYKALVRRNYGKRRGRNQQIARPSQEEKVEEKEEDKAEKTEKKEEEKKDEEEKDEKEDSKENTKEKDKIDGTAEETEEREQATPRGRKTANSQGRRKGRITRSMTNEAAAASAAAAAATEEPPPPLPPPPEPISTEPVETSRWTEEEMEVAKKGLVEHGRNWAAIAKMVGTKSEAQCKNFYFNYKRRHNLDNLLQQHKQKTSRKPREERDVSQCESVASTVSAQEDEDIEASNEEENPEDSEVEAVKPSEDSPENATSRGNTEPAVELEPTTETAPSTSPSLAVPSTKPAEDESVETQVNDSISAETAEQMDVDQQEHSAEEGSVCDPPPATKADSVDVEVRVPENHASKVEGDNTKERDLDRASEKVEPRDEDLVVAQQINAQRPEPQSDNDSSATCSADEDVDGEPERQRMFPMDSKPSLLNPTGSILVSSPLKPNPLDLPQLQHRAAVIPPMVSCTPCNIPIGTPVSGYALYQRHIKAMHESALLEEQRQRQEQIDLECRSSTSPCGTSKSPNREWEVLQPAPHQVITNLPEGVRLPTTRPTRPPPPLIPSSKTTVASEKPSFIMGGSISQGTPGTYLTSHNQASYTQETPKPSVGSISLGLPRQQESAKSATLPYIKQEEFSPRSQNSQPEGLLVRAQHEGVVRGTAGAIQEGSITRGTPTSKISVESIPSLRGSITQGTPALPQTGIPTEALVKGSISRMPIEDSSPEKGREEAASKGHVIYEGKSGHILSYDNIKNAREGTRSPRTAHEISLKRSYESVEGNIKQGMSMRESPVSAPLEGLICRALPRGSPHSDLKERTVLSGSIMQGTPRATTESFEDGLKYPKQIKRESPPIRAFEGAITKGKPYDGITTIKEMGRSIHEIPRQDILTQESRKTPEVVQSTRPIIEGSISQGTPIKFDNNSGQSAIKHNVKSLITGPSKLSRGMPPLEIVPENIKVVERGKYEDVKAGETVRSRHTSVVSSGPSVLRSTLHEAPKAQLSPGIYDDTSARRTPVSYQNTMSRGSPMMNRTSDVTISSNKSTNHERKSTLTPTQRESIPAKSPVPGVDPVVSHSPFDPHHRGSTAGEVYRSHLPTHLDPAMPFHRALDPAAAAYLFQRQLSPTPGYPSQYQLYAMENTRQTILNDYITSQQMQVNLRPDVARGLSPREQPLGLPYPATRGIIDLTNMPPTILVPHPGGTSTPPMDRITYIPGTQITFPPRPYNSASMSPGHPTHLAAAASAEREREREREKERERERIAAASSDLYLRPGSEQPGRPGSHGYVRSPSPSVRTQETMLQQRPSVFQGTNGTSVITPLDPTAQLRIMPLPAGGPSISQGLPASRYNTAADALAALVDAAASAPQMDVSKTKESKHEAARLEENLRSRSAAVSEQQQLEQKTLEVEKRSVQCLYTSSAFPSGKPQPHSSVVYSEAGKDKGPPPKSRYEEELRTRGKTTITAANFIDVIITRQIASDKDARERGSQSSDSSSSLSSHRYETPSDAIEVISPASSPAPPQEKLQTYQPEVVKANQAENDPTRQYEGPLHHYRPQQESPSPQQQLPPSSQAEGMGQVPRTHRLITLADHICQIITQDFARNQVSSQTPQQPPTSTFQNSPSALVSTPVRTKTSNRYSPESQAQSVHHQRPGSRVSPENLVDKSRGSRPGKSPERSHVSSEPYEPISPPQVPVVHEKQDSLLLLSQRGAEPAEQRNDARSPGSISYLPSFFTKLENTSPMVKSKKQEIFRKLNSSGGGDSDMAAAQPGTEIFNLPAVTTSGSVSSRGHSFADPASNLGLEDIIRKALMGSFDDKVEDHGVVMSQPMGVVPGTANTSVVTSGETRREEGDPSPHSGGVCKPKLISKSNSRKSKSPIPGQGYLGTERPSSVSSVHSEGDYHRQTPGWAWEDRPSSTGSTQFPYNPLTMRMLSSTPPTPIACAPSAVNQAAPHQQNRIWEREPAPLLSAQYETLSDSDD

[6] = system: Candida albicans; test: microbe, parasite or virus in culture; assay type: functional; settings: Candida albicans, 0304103, 48 h
Description: Antifungal activity against FLC resistant Candida albicans 0304103 after 48 hrs in presence of fluconazol by checkerboard microdilution method

[7] = system: Candida albicans; test: Antifungal activity against FLC resistant Candida albicans 100 after 48 hrs by checkerboard microdilution method; assay type: functional; settings: Candida albicans, 100, 48 h
[8] = system: Candida albicans; test: microbe, parasite or virus in culture; assay type: functional; settings: Candida albicans, 0710922, 48 h
Description: Antifungal activity against FLC resistant Candida albicans 0710922 after 48 hrs in presence of fluconazol by checkerboard microdilution method

[9] = Half life in ICR mouse liver microsomes at 1 uM measured up to 45 mins in presence of NADPH by LC-MS/MS analysis; assay type: ADME, microsome
[10] = system: HEL; test: Induction of apoptosis in human HEL cells at 10 uM after 48 hrs by Annexin-V-FITC/propidium iodide staining based flow cytometry relative to control; assay type: functional
[11] = target: T1, Histone deacetylase (Homo sapiens); test: Inhibition of HDAC in human HEL cells assessed as increased in histone H4 acetylation after 24 hrs by Western blot analysis; assay type: cell-based
[12] = system: Mus musculus; test: Toxicity in BALB/C nude mouse xenografted with human HEL cells at 10 mg/kg, ip bid treated for 21 consecutive days; assay type: organism-based; settings: in vivo
[13] = system: Candida albicans; test: Antifungal activity against FLC resistant Candida albicans 0304103 at 32 ug/ml up to 24 hrs by checkerboard microdilution method; assay type: functional, organism-based
[14] = target: T2, Tyrosine-protein kinase JAK3 (Homo sapiens, UniProt P52333); test: Inhibition of JAK3 (unknown origin) using FAM-labeled peptide as substrate preincubated for 10 mins followed by substrate addition and measured after 25 mins in presence of ATP
T2 sequence (P52333 whole entry): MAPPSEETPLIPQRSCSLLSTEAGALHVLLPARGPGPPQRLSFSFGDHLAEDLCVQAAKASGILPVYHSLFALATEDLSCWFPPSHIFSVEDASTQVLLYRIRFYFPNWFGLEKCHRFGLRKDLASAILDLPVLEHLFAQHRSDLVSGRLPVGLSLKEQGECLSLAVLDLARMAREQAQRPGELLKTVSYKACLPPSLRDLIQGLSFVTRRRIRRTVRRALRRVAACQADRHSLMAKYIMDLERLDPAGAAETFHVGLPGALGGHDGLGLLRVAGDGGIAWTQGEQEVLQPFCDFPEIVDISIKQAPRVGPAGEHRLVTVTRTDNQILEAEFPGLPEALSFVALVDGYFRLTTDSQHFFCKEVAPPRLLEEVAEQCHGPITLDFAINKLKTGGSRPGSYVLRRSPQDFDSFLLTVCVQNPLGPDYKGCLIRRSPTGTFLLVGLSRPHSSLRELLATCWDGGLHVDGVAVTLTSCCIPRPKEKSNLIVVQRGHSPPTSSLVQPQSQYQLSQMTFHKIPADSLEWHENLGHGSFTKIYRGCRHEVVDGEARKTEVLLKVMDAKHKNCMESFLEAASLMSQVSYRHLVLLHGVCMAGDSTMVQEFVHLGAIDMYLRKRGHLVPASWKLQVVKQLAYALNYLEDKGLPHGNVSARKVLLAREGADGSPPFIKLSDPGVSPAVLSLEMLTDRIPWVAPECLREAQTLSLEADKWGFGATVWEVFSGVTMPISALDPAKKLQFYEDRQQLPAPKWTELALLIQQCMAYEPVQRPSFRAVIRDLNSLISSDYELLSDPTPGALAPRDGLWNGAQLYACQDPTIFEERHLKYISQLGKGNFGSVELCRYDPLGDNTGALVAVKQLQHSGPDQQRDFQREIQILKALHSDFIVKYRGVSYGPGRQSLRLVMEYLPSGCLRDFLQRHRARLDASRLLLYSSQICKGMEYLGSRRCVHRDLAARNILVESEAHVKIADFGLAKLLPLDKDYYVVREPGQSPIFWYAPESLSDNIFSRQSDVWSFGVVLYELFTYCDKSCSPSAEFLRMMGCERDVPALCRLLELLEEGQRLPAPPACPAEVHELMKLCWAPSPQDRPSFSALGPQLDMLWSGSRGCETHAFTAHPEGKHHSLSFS

[15] = target: Tyrosine-protein kinase JAK1 (Homo sapiens, UniProt P23458); test: Inhibition of JAK1 (unknown origin) using FAM-labeled peptide as substrate preincubated for 10 mins followed by substrate addition and measured after 25 mins in presence of ATP
Chain of Tyrosine-protein kinase JAK1 (P23458 whole entry): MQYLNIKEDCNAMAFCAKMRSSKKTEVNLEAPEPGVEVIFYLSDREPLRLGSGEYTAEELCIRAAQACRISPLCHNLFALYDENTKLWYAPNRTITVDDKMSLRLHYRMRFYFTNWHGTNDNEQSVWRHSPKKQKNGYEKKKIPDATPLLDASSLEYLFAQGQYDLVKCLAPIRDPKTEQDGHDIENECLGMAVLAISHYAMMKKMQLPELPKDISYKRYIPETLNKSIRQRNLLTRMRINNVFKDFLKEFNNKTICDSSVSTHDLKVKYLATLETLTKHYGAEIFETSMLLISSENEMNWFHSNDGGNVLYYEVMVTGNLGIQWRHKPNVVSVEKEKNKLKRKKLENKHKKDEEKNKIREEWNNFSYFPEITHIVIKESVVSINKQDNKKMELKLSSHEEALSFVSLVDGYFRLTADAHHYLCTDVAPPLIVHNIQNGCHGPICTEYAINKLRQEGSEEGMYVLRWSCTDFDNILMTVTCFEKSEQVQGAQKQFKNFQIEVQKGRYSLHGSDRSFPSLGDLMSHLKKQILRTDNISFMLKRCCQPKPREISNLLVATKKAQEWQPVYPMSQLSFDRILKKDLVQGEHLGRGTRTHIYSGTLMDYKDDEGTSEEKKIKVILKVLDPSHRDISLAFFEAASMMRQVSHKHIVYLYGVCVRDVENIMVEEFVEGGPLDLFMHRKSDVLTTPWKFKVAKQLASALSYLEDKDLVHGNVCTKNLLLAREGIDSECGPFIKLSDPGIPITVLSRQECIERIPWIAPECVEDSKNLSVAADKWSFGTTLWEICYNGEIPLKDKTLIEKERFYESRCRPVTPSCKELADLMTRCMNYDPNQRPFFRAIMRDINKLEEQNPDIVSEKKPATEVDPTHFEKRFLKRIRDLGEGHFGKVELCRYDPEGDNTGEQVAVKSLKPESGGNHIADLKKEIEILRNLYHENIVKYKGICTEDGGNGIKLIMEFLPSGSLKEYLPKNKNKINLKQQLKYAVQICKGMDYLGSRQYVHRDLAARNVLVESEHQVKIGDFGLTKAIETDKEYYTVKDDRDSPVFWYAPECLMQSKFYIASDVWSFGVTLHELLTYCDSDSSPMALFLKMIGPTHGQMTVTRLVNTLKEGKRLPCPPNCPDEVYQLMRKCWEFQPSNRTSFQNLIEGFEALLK

[16] = system: Candida albicans; test: Synergistic antifungal activity against FLC resistant Candida albicans 0710922 assessed as FIC index after 48 hrs by checkerboard microdilution method; assay type: functional
[17] = system: Mus musculus; test: In vivo antifungal activity against FLC resistant Candida albicans 0304103 infected in ICR mouse assessed as mouse survival at 5 mg/kg, ip qd up to 20 days in co-treated with 1 mg/kg, ip qd fluconazol (reference value: 4.5 day); assay type: functional
[18] = system: Candida albicans; test: Antibiofilm activity against FLC resistant Candida albicans 0304103 assessed as inhibition of biofilm formation pre-incubated with 64 ug/ml FLC for 90 mins followed by further incubation with compound for 24 hrs by XTT reduction assay; assay type: functional, organism-based
[19] = system: Mus musculus; test: Toxicity in BALB/C nude mouse xenografted with human HEL cells assessed as reduction in body weight at 10 mg/kg, ip bid treated for 21 consecutive days; assay type: organism-based; settings: in vivo
[20] = target: Tyrosine-protein kinase JAK2 (Homo sapiens, UniProt O60674); test: Inhibition of JAK2 (unknown origin) using FAM-labeled peptide as substrate preincubated for 10 mins followed by substrate addition and measured after 25 mins in presence of ATP
Chain of Tyrosine-protein kinase JAK2 (O60674 whole entry): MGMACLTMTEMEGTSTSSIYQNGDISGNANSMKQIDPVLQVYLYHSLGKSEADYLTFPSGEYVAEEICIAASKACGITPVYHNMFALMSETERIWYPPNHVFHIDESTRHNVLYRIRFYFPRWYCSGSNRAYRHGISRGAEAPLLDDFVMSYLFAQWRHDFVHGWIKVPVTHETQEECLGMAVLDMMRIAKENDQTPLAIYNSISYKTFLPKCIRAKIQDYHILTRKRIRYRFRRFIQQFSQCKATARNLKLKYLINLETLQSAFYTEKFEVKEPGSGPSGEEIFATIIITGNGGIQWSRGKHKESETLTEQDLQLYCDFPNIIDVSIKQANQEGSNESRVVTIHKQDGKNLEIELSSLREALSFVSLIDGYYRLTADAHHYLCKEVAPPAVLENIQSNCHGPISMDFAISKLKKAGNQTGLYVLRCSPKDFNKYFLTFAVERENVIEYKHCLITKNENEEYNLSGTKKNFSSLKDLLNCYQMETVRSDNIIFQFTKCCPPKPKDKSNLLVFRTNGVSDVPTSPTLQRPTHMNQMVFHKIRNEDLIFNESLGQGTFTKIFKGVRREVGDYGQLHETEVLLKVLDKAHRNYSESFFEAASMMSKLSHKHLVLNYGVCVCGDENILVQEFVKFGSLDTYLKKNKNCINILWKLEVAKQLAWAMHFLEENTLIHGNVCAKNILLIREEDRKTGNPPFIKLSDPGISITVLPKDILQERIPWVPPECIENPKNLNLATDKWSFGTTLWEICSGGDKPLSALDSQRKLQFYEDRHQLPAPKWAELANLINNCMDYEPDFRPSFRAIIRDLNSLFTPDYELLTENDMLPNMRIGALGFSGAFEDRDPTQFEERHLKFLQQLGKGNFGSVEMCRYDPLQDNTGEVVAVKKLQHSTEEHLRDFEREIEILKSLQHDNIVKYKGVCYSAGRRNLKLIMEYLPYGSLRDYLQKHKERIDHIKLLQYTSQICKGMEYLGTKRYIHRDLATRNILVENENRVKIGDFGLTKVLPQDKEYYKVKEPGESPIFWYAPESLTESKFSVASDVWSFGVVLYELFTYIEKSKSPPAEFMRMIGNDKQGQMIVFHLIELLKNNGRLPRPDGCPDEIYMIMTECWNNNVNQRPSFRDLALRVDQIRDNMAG

[21] = system: Candida albicans; test: Antifungal activity against FLC resistant Candida albicans 0304103 at 32 ug/ml up to 24 hrs in presence of fluconazol by checkerboard microdilution method; assay type: functional, organism-based
[22] = system: HEL; test: Induction of apoptosis in human HEL cells after 48 hrs by Annexin-V-FITC/propidium iodide staining based flow cytometry; assay type: functional, cell-based
[23] = system: HEL; test: Antiproliferative activity against human HEL cells after 48 hrs by CCK-8 assay; assay type: functional, cell-based
[24] = system: Candida albicans; test: microbe, parasite or virus in culture; assay type: functional; settings: Candida albicans, 0710922, 48 h; remark: listed apart in the source
Description: Antifungal activity against FLC resistant Candida albicans 0710922 assessed as fluconazol MIC50 after 48 hrs by checkerboard microdilution method

[25] = system: K562; test: Antiproliferative activity against human K562 cells after 48 hrs by CCK-8 assay; assay type: functional, cell-based; settings: K562, 48 h

Row | Structure (SMILES) | Activity [1] | inhibition [2] | MIC50 [3] [µg/mL] | fractional inhibitory concentration index (FICI) [4] | IC50 [5] [µM] | MIC50 [6] [µg/mL] | MIC50 [7] [µg/mL] | MIC50 [8] [µg/mL] | half-life at 1 µM [9] [min] | Activity [10] [%] | inhibition [11] | Activity [12] | Activity [13] | IC50 [14] [µM] | IC50 [15] [µM] | fractional inhibitory concentration index (FICI) [16] | MST [17] [days] | inhibition [18] | Activity [19] | IC50 [20] [µM] | other results
1 | CS(=O)(=O)Nc1ccc(-c2ccnc(Nc3ccc(N4CCC(C(=O)NCCCCCCCC(=O)NO)CC4)cc3)n2)cc1 | Active | Dose-dependent effect | 0.5 (≈ 0.802 µM) | 0.13 | 0.017 | 8 (≈ 12.8 µM) | > 64 | 16 (≈ 25.7 µM) | 15.7 | 89.2 | Dose-dependent effect | Non-Toxic | inactive | 0.144 | 0.076 | 0.26 | 13 | Dose-dependent effect | Non-Toxic | 0.002 | Activity [21]: Active; Activity [22]: Dose-dependent effect; IC50 [23]: 1.8 µM; MIC50 [24]: 0.25 µg/mL (≈ 0.401 µM); IC50 [25]: 5.9 µM
2 | O=C(NO)c1ccc(-c2ccnc(Nc3ccc(N4CCOCC4)cc3)n2)cc1 | Active | Dose-dependent effect | 0.5 (≈ 1.28 µM) | 0.07 | 0.045 | 4 (≈ 10.2 µM) | > 64 | 16 (≈ 40.9 µM) | 16.5 | 86.2 | Dose-dependent effect | Non-Toxic | inactive | 0.517 | 0.069 | 0.27 | 11 | Dose-dependent effect | Non-Toxic | 0.085 | Activity [21]: Active; Activity [22]: Dose-dependent effect; IC50 [23]: 3.5 µM; MIC50 [24]: 1 µg/mL (≈ 2.55 µM); IC50 [25]: 4 µM
3 | CS(=O)(=O)Nc1ccc(-c2ccnc(Nc3ccc(N4CCC(C(=O)Nc5ccc(/C=C/C(=O)NO)cc5)CC4)cc3)n2)cc1 | Active | Dose-dependent effect | 0.5 (≈ 0.797 µM) | 0.07 | 0.234 | 4 (≈ 6.37 µM) | > 64 | 8 (≈ 12.7 µM) | 19.4 | 70.62 | Dose-dependent effect | Non-Toxic | inactive | 0.121 | 0.359 | 0.14 | 11.5 | Dose-dependent effect | Non-Toxic | 0.008 | Activity [21]: Active; Activity [22]: Dose-dependent effect; IC50 [23]: 0.34 µM; MIC50 [24]: 1 µg/mL (≈ 1.59 µM); IC50 [25]: 8.7 µM
